Test results taken from paper PMC4995097, “Talin-KANK1 interaction controls the recruitment of cortical microtubule stabilizing complexes to focal adhesions” (eLife, 2016).

How the values were obtained:
GFP-talin1 = assay: Streptavidin pull down of BioGFP-KANK1 constructs with GFP-talin1, Western blot; assay type: binding, mouse; conditions: 4A mutation introduced into the construct; HEK293T cells, Figure 3A
From the text: BioGFP-tagged KANK1 mutants were constructed using PCR and pBioGFP-C1 vector as previously described ([van der Vaart et al., 2013]). Rescue constructs for BioGFP-tagged KANK1 were either based on the version previously described ([van der Vaart et al., 2013]) or a version obtained by PCR-based mutagenesis of the sequence […] to […]. mCherry-tagged paxillin construct was made by replacing GFP from pQC-GPXN ([Bouchet et al., 2011]) by mCherry (pmCherry-C1, Clontech). TagRFP-tagged paxillin construct was made by PCR-based amplification and cloning in pTagRFP-T-C1 (kind gift from Y. Mimori-Kiyosue, Riken Institute, Japan). HA-tagged KANK1 construct was generated by cloning KANK1 coding sequence into pMT2-SM-HA (gift of C. Hoogenraad, Utrecht University, The Netherlands). pLVX-IRES-Neo (pLVIN) vectors was constructed by cloning the IRES-neomycin resistance cassette from the pQCXIN plasmid (Clontech) into the pLVX-IRES-Puro plasmid (Clontech). […]
Streptavidin-based pull down assays of biotinylated proteins expressed using pBioGFP-C1 constructs transfected in HEK293T cells was performed and analyzed as previously described ([van der Vaart et al., 2013]). […] For RP-nanoLC-MS/MS, samples were resuspended in 10% formic acid (FA) / 5% DMSO and was analyzed using a Proxeon Easy-nLC100 (Thermo Scientific) connected to an Orbitrap Q-Exactive mass spectrometer. […]

[1] = tested on: focal adhesions in HeLa cells; assay: TIRFM localization of GFP-tagged KANK1 constructs relative to focal adhesions; assay type: cell-based, human; conditions: live HeLa cells with mCherry- or TagRFP-paxillin
Method: HeLa Kyoto cell line was described previously ([Lansbergen et al., 2006]; [Mimori-Kiyosue et al., 2005]). HEK293T cells were purchased from ATCC; culture and transfection of DNA and siRNA into these cell lines was performed as previously described ([van der Vaart et al., 2013]). HaCaT cells were purchased at Cell Line Service (Eppelheim, Germany) and cultured according to manufacturer’s instructions. The cell lines were routinely checked for mycoplasma contamination using LT07-518 Mycoalert assay (Lonza, Switzerland).The identity of the cell lines was monitored by immunofluorescence-staining-based analysis with multiple markers. Blebbistatin was purchased from Enzo Life Sciences and used at 50 μM. Serum starvation in HeLa cells was done for 48 hr and focal adhesion assembly was stimulated by incubation with fetal calf serum-containing medium with or without blebbistatin for 2 hr. ROCK1 inhibitor Y-27632 was purchased at Sigma-Aldrich and used at 1 or 10 μM. Double stable HeLa cell line expressing GFP-KANK1 and TagRFP-paxillin was made by viral infection. We used a pLVIN-TagRFP-paxillin-based lentivirus and a pQC-GFP-KANK1-based retrovirus packaged in HEK293T cells using respectively Lenti-X HTX packaging and pCL-Ampho vectors. Antibiotic selection was applied to cells 48 hr after infection using 500 μg/ml G418 (Geneticin, Life Technologies) and 1 μg/ml puromycin (InvivoGen). […]

KN domain: GFP-tagged KN domain of KANK1 (residues 30–68)
effect of 4A mutation on interaction with talin1 (in words) (GFP-talin1): An even stronger reduction was observed | localization relative to FAs, endogenous KANK1/2 present (in words) [1]: strongly and specifically accumulated within FAs
